Data: ChEMBL document CHEMBL1128401, “Structure-activity relationships in the 8-amino-6,7,8,9-tetrahydro-3H-benz[e]indole ring system. 1. Effects of substituents in the aromatic system on serotonin and dopamine receptor subtypes” (J Med Chem, 1995)
The source made the active and inactive calls. The calls are words filed in the database; no cut-off is given here.

How the values were obtained:
Rattus norvegicus [1] = test: compound was tested in vivo for DOPA accumulation in corpus striatum against reserpine-pretreated rats;I= inactive at the highest dose tested; format: functional, organism-based
[2] = target: 5-hydroxytryptamine receptor 1D (Homo sapiens, UniProt P28221); test: Binding affinity against 5-hydroxytryptamine 1D receptor alpha expressed in CHO-K1 cells, using [3H]-5-HT as the radioligand.; format: cell-based; conditions: read-out: Ki
5-hydroxytryptamine receptor 1D, sequence (P28221 whole entry): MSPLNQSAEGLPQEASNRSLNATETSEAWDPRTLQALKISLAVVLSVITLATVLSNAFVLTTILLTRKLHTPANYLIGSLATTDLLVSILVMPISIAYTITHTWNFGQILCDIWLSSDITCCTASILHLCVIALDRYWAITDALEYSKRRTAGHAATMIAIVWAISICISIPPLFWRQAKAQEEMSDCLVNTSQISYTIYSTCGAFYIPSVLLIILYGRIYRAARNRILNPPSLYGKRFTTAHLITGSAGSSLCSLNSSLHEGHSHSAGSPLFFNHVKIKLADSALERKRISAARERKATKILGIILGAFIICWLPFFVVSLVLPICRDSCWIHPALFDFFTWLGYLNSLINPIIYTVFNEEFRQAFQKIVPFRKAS

Rattus norvegicus [3] = test: The compound was tested in vivo for DOPA accumulation in limbic system against reserpine-pretreated rats;I= inactive at the highest dose tested; format: functional, organism-based
D(2) dopamine receptor [4] = target: T1, D(2) dopamine receptor (Rattus norvegicus, UniProt P61169); test: Binding affinity against Dopamine receptor D2 from CHO-K1 cells, using [3H]U-86,170 as the radioligand.; format: cell-based
T1 sequence (P61169 whole entry): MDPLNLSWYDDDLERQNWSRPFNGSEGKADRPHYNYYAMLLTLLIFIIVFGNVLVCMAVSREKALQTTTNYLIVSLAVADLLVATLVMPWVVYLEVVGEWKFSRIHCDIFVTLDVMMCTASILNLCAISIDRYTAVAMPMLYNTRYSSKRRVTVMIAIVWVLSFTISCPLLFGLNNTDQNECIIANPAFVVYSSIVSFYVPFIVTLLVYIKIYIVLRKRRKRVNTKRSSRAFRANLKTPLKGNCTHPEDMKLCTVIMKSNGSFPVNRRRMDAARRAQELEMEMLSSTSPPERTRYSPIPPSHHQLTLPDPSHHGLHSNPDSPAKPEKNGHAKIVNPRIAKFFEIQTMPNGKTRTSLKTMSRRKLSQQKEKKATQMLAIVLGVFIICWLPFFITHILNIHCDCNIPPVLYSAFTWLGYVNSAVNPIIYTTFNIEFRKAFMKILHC

Rattus norvegicus [5] = test: The compound was tested in vivo for DOPA accumulation in hemispheres (cortex) against reserpine-pretreated rats;I= inactive at the highest dose tested; format: functional, organism-based
[6] = target: 5-hydroxytryptamine receptor 1B (Homo sapiens, UniProt P28222); test: Binding affinity against 5-hydroxytryptamine 1D receptor beta expressed in CHO-K1 cells, using [3H]5-HT as the radioligand.; format: cell-based
5-hydroxytryptamine receptor 1B, sequence (P28222 whole entry): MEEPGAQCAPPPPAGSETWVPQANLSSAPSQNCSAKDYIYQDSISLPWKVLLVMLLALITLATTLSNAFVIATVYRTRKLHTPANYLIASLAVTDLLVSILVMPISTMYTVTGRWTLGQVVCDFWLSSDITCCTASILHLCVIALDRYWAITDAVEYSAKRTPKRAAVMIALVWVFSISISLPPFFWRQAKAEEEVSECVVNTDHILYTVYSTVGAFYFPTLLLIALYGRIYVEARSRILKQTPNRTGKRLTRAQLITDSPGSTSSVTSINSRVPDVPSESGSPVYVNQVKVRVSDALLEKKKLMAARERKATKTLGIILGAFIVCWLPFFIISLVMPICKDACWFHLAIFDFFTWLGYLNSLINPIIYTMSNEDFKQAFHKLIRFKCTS

D(3) dopamine receptor [7] = target: T2, D(3) dopamine receptor (Rattus norvegicus, UniProt P19020); test: Binding affinity against Dopamine receptor D3 from CHO-K1 cells, using [3H]spiperone as the radioligand.; format: cell-based; conditions: read-out: Ki
T2 sequence (P19020 whole entry): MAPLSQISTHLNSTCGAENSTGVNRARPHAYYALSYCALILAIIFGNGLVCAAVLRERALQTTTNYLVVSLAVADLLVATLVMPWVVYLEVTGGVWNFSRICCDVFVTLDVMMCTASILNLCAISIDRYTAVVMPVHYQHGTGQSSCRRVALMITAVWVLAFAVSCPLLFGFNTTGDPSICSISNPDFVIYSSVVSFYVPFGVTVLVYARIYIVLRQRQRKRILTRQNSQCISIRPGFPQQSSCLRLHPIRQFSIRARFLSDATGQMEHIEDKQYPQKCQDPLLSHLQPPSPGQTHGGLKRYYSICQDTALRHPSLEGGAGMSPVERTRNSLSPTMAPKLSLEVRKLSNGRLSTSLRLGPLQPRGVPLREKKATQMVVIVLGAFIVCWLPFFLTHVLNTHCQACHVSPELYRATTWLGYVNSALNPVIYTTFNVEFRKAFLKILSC

Rattus norvegicus [8] = test: The Compound was tested in vivo for DOPA accumulation in hemispheres (cortex) against reserpine-pretreated rats;I= inactive at the highest dose tested (50).; format: functional, organism-based
Rattus norvegicus [9] = test: Compound was tested in vivo for 5-HTP accumulation in limbic system against reserpine-pretreated rats;I=inactive at the highest dose tested (50).; format: functional, organism-based
Rattus norvegicus [10] = test: The Compound was tested in vivo for DOPA accumulation in limbic system against reserpine-pretreated rats; P=significant partial reduction only at the highest dose tested (50).; format: functional, organism-based
Rattus norvegicus [11] = test: Compound was tested in vivo for 5-HTP accumulation in corpus striatum against reserpine-pretreated rats;I= inactive at the highest dose tested (50).; format: functional, organism-based
Rattus norvegicus [12] = test: Compound was tested in vivo for DOPA accumulation in corpus striatum against reserpine-pretreated rats; P=significant partial reduction only at the highest dose tested (50).; format: functional, organism-based
Rattus norvegicus [13] = test: Compound was tested in vivo for 5-HTP accumulation in hemispheres (cortex) against reserpine-pretreated rats;I= inactive at the highest dose tested (50).; format: functional, organism-based
[14] = target: T3, 5-hydroxytryptamine receptor 1A (Rattus norvegicus, UniProt P19327); test: Binding affinity against 5-hydroxytryptamine 1A receptor from CHO-K1 cells, using [3H]8-OH-DPAT as the radioligand.; format: cell-based
T3 sequence (P19327 whole entry): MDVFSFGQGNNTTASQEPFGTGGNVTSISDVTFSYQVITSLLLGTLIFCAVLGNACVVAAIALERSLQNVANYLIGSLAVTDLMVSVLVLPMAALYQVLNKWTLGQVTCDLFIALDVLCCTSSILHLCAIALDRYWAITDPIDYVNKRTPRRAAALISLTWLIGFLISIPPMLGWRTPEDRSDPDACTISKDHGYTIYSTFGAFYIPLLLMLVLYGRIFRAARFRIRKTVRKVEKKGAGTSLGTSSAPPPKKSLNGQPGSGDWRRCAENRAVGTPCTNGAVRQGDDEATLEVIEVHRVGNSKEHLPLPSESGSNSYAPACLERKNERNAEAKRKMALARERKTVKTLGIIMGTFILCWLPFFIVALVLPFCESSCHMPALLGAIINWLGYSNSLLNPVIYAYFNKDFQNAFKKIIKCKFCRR

Rattus norvegicus [15] = test: The compound was tested in vivo for DOPA accumulation in limbic system against reserpine-pretreated rats; I=inactive at the highest dose tested; format: functional, organism-based
Rattus norvegicus [16] = test: compound was tested in vivo for 5-HTP accumulation in corpus striatum against reserpine-pretreated rats, activity expressed as ED50;I= inactive at the highest dose tested; format: functional, organism-based
D(2) dopamine receptor [17] = target: T1, D(2) dopamine receptor; test: Binding affinity against Dopamine receptor D2 expressed in CHO-K1 cells, using [3H]U-86170 as the radioligand.; format: cell-based
Rattus norvegicus [18] = test: The Compound was tested in vivo for DOPA accumulation in hemispheres (cortex) against reserpine-pretreated rats; I=inactive at the highest dose tested (3.1).; format: functional, organism-based
D(3) dopamine receptor [19] = target: T2, D(3) dopamine receptor; test: Binding affinity against Dopamine receptor D3 expressed in CHO-K1 cells, using [3H]spiperone as the radioligand.; format: cell-based
Rattus norvegicus [20] = test: The Compound was tested in vivo for DOPA accumulation in limbic system against reserpine-pretreated rats; P=significant partial reduction only at the highest dose tested (3.1).; format: functional, organism-based
Rattus norvegicus [21] = test: Compound was tested in vivo for DOPA accumulation in corpus striatum against reserpine-pretreated rats;I= inactive at the highest dose tested (3.1).; format: functional, organism-based
Rattus norvegicus [22] = test: Compound was tested in vivo for 5-HTP accumulation in hemispheres (cortex) against reserpine-pretreated rats; P=significant partial reduction only at the highest dose tested (50).; format: functional, organism-based
Rattus norvegicus [23] = test: Compound was tested in vivo for 5-HTP accumulation in limbic system against reserpine-pretreated rats; P=significant partial reduction only at the highest dose tested (50).; format: functional, organism-based
Rattus norvegicus [24] = test: The Compound was tested in vivo for DOPA accumulation in hemispheres (cortex) against reserpine-pretreated rats; P=significant partial reduction only at the highest dose tested (50).; format: functional, organism-based
D(2) dopamine receptor [25] = target: T1, D(2) dopamine receptor; conditions: cho-k1
Rattus norvegicus [26] = test: Compound was tested in vivo for 5-HTP accumulation in corpus striatum against reserpine-pretreated rats; P=significant partial reduction only at the highest dose tested (50).; format: functional, organism-based
Rattus norvegicus [27] = test: Compound was tested in vivo for DOPA accumulation in corpus striatum against reserpine-pretreated rats;P= significant partial reduction only at the highest dose tested (50).; format: functional, organism-based
Rattus norvegicus [28] = test: In vivo for DOPA accumulation in corpus striatum against reserpine-pretreated rats.; format: functional
Rattus norvegicus [29] = test: In vivo for 5-HTP accumulation in limbic system against reserpine-pretreated rats.; format: functional
Rattus norvegicus [30] = test: In vivo for DOPA accumulation in limbic system against reserpine-pretreated rats.; format: functional
Rattus norvegicus [31] = test: The Compound was tested in vivo for DOPA accumulation in hemispheres (cortex) against reserpine-pretreated rats;I= inactive at the highest dose tested (25); format: functional, organism-based
Rattus norvegicus [32] = test: In vivo for 5-HTP accumulation in corpus striatum against reserpine-pretreated rats.; format: functional
Rattus norvegicus [33] = test: Compound was tested in vivo for 5-HTP accumulation in hemispheres (cortex) against reserpine-pretreated rats; P=significant partial reduction only at the highest dose tested (12.5).; format: functional, organism-based

Compound | Ki [2] | Ki (D(2) dopamine receptor [4]) | ED50 (Rattus norvegicus [5]) | Ki ([6]; read-out: Ki) | Ki (D(3) dopamine receptor [7]) | ED50 (Rattus norvegicus [10]) | Ki [14] | Ki (D(2) dopamine receptor [17]) | Ki (D(3) dopamine receptor [19]) | other results
CCCN(CCC)[C@@H]1CCc2ccc3[nH]cc(C=O)c3c2C1 | 31 nM | 17 nM | inactive | 210 nM | 51 nM |  |  |  |  | ED50 (Rattus norvegicus [1]): inactive; ED50 (Rattus norvegicus [3]): inactive
CCCN(CCC)C1CCc2ccc3c(c2C1)N(C=O)CC3 (stereo not given) |  |  |  |  |  | Weak activity |  |  |  | ED50 (Rattus norvegicus [8]): inactive; ED50 (Rattus norvegicus [9]): inactive; ED50 (Rattus norvegicus [11]): inactive; ED50 (Rattus norvegicus [12]): Weak activity; ED50 (Rattus norvegicus [13]): inactive
CCCN(CCC)C1CCc2ccc3c(c(C=O)cn3C)c2C1 (stereo not given) | 334 nM | 510 nM | inactive | 439 nM | 1010 nM |  | 40 nM |  |  | ED50 (Rattus norvegicus [15]): inactive; ED50 (Rattus norvegicus [16]): inactive
CCCN(CCC)[C@@H]1CCc2ccc3[nH]cc(C#N)c3c2C1 | 6.7 nM |  |  | 26 nM |  |  | 0.8 nM | 22 nM | 45 nM | ED50 (Rattus norvegicus [18]): inactive; ED50 (Rattus norvegicus [20]): Weak activity; ED50 (Rattus norvegicus [21]): inactive
CCCN(CCC)C1CCc2ccc3[nH]cc(C(=O)C(N)=O)c3c2C1 (stereo not given) | 87 nM |  |  | 552 nM |  | Weak activity | 24 nM |  |  | ED50 (Rattus norvegicus [22]): Weak activity; ED50 (Rattus norvegicus [23]): Weak activity; ED50 (Rattus norvegicus [24]): Weak activity; Ki (D(2) dopamine receptor [25]): Not Active; ED50 (Rattus norvegicus [26]): Weak activity; ED50 (Rattus norvegicus [27]): Weak activity
CCCN(CCC)C1CCc2ccc3[nH]cc(SC)c3c2C1 (stereo not given) | 18 nM |  |  |  |  |  | 13 nM | 33 nM | 55 nM | ED50 (Rattus norvegicus [28]): 5.23 µmol/kg; ED50 (Rattus norvegicus [29]): 10 µmol/kg; ED50 (Rattus norvegicus [30]): 7.11 µmol/kg; ED50 (Rattus norvegicus [31]): inactive; ED50 (Rattus norvegicus [32]): 10.2 µmol/kg; Ki ([6]; cho-k1): Not Active; ED50 (Rattus norvegicus [33]): Weak activity
